Measured values: article PMC7600679, “Benzoxazole-Based Metal Complexes to Reverse Multidrug Resistance in Bacteria” (Antibiotics, 2020)
Read-outs that look alike come from different tables or passages of the source.

Legend:
[1] = tested on: S. aureus 272123 (MRSA); experiment: Minimum inhibitory concentration (broth microdilution, CLSI); format: cell-based, Staphylococcus aureus; conditions: 18 h, visual inspection
Protocol: (§1) The compounds were further investigated against two Gram-positive strains, S. aureus ATCC 25923 (MSSA), used as the methicillin susceptible reference strain, and the methicillin- and ofloxacin-resistant S. aureus 272123 clinical isolate (MRSA), which was given by Prof. Dr. Leonard Amaral (Institute of Hygiene and Tropical Medicine, Lisbon, Portugal).
(§2) The minimum inhibitory concentrations (MICs) of compounds were determined in 96-well plates based on the Clinical and Laboratory Standard Institute guidelines (CLSI guidelines). The compounds were diluted in 100 μL of MHB. Then, 10^−4 dilution of an overnight bacterial culture in 100 μL of medium were added to each well, with the exception of the medium control wells.

[2] = tested on: E. coli AG100; experiment: as above; format: cell-based, Escherichia coli; conditions: E. coli AG100; 18 h, visual inspection; read-out: MIC
Protocol: The strains were donated by Prof. Dr. Hiroshi Nikaido (Department of Molecular and Cell Biology and Chemistry, University of California, Berkeley, CA, USA).
as §2

[3] = tested on: S. aureus 272123 (MRSA); experiment: Real-time ethidium bromide accumulation (efflux pump inhibition); format: cell-based, Staphylococcus aureus; conditions: compounds at ¼ MIC (3 at 12.5 µM), VER at 25 µM, EB 1 μg/mL, minute 30
Protocol: (§3) Since multidrug resistance EPs are very important factors contributing to multidrug resistance (MDR) in both Gram-positive and Gram-negative bacteria, the inhibition of these pumps could reverse the resistant phenotype and restore the activity of antibiotics. The effect of compounds on ethidium bromide (EB) accumulation was determined by the automated EB method. This assay was used to determine how much of the fluorescent dye and pump substrate EB was accumulated by the bacterial cells in the presence of the tested compounds. The real-time accumulation of EB was monitored for 30 min in both S. aureus and E. coli strains.
(§4) The accumulation of the efflux pump substrate EB was monitored by the automated EB method using a LightCycler real-time thermocycler (LightCycler 1.5, Roche, Indianapolis, IN, USA). An aliquot of an overnight culture of the S. aureus strains in TSB medium was inoculated into fresh TSB medium, and it was incubated until it reached an optical density (OD) of 0.6 at 600 nm. In the case of E. coli strains, the medium applied in the assay was LB broth; the preparation of the inoculum was similar to the one of S. aureus. The cells were washed with phosphate buffered saline (PBS; pH 7.4) and centrifuged at 13,000 × g for 3 min, the pellets were re-suspended in PBS (pH 7.4), and the OD was calibrated to 0.6 at 600 nm. The compounds were measured at ¼ MIC concentration (in double-concentrated form) to the EB solution in PBS. The final concentration of EB was determined according to the MIC and the fluorescent signal produced by this amount of EB. In the case of all strains, the concentration of EB was 1 μg/mL. Then, 10 μL of the EB solution plus the compound were pipetted into standard glass capillary tubes of 20 µL maximum volume (Roche, Indianapolis, USA), and 10 μL of bacterial culture (OD of 0.6 at 600 nm) were transferred to the capillaries. The capillaries containing the samples were placed into the carousel, and the fluorescence was monitored at the FL-2 channel in every minute on a real-time basis.
(§5) Based on the data obtained, the relative fluorescence index (RFI) of the last time point (minute 30) was determined as follows:RFI = (RFtreated − RFuntreated)/RFuntreated(1) where RFtreated is the relative fluorescence (RF) at the last time point of the EB retention curve in the presence of an inhibitor, and RFuntreated is the relative fluorescence at the last time point of the EB retention curve of the untreated control having the solvent control (DMSO).

[4] = tested on: S. aureus ATCC 25923; experiment: as above; format: cell-based, Staphylococcus aureus; conditions: compounds at ¼ MIC, EB 1 μg/mL, minute 30
Protocol: as §3, §4, §5

[5] = tested on: Staphylococcus aureus ATCC 25923; experiment: Minimum inhibitory concentration (broth microdilution, CLSI); format: cell-based; conditions: S. aureus ATCC 25923; 18 h, visual inspection
Protocol: as §1, §2

[6] = tested on: C. violaceum 026 sensor strain with AHL producer E. cloacae 31298; experiment: Quorum sensing inhibition (agar diffusion, violacein production); format: cell-based, Chromobacterium violaceum; conditions: disc with 10 μL of 1 mM stock; reduction of violacein zone
Protocol: (§6) The following bacterial strains were applied in the QS tests: C. violaceum 026 as sensor strain and E. cloacae 31298 isolated from clinical wound (used as N-acyl-homoserine lactone (AHL) producer); this strain induced pigment production by C. violaceum and is a model strain to study QS interactions.
LB* was applied for these experiments. The sensor strain C. violaceum 026 and the AHL producer strains E. cloacae 31298 were inoculated as parallel lines and incubated at room temperature for 24–48 h. The inhibition of bacterial communication was determined by the agar diffusion method. Filter paper discs (7.0 mm in diameter) were impregnated with 10 μL of stock solutions (1 mM) of the compounds in DMSO. The discs were placed between the parallel lines of the sensor and the AHL producer strains. The plates were kept at room temperature for another 24–48 h, and the interactions between the strains and compounds were determined as the reduction in the size of the zone of purple pigment (violacein) production in millimeters. PMZ was applied as a positive control.

[7] = tested on: Chromobacterium violaceum 026; experiment: Minimum inhibitory concentration (broth microdilution, CLSI); format: cell-based; conditions: C. violaceum 026
Protocol: as §6, §2

[8] = tested on: Enterobacter cloacae 31298; experiment: as above; format: cell-based; conditions: E. cloacae 31298
Protocol: as §6, §2

[9] = tested on: E. coli AG100 A; experiment: Real-time ethidium bromide accumulation (efflux pump inhibition); format: cell-based, Escherichia coli; conditions: compounds at ¼ MIC, EB 1 μg/mL, minute 30
Protocol: as §3, §4, §5

[10] = tested on: MRC-5 human embryonal lung fibroblast cell line; experiment: Cytotoxicity assay (MTT); format: cell-based; conditions: 24 h
Protocol: The MRC-5 human embryonic lung fibroblast cell line (ATCC CCL-171; provider: LGC Promochem, Teddington, UK) was used in the experiments. The cells were cultivated in Eagle’s Minimal Essential Medium (EMEM; Sigma–Aldrich, St. Louis, MO, USA), supplemented with 1% non-essential amino acid mixture, 10% heat-inactivated fetal bovine serum, 2 mM L-glutamine, 1 mM Na-pyruvate, nystatin, and a penicillin–streptomycin mixture in concentrations of 100 U/L and 10 mg/L, respectively. The supplementary components were obtained from Sigma–Aldrich, St. Louis, MO, USA. The cell culture was kept in a humidified atmosphere (5% CO2, 95% air) at 37 °C.
The activity of increasing concentrations of the compounds on cell growth was determined in 96-well flat-bottomed microtiter plates by two-fold serial dilutions of the benzoxazole derivatives. The adherent human embryonic lung fibroblast cells (10^4/well) was seeded in EMEM medium in 96-well microtiter plates for 4 h prior to the assay. The serial dilutions of the compounds were made in a separate plate, and then pipetted to the plates containing the MRC-5 cell line. Culture plates were incubated at 37 °C for 24 h; at the end of the incubation period, 20 μL of MTT (3-(4,5-dimethylthiazol-2-yl)-2,5-diphenyltetrazolium bromide) solution (from a 5 mg/mL stock solution) was measured to each well. After the incubation at 37 °C for 4 h, 100 μL of sodium dodecyl sulfate (SDS) solution (10% SDS in 0.01 M HCl) was added to each well to dissolve the formazan crystals and the samples were further incubated at 37 °C overnight. Cell growth was calculated by measuring the OD at 540 nm (ref. 630 nm) with a Multiscan EX ELISA reader. The cytotoxicity was expressed as IC50 values, defined as the inhibitory dose that reduces the growth of the cells exposed to the tested compounds by 50%.

[11] = tested on: E. coli AG100; experiment: Real-time ethidium bromide accumulation (efflux pump inhibition, AcrAB-TolC); format: cell-based, Escherichia coli; conditions: compounds at ¼ MIC, EB 1 μg/mL, minute 30
Protocol: as §3, §4, §5

[12] = tested on: E. coli AG100 A; experiment: Minimum inhibitory concentration (broth microdilution, CLSI); format: cell-based, Escherichia coli; conditions: E. coli AG100 A (AcrAB-TolC deleted); 18 h, visual inspection
Protocol: Wild-type E. coli K-12 AG100 strain (argE3 thi-1 rpsL xyl mtl Δ(gal-uvrB) supE44) expressing the AcrAB TolC EP at its basal level and its AcrAB-TolC deleted mutant E. coli K-12 AG100 A strain. The strains were donated by Prof. Dr. Hiroshi Nikaido (Department of Molecular and Cell Biology and Chemistry, University of California, Berkeley, CA, USA).
as §2

[13] = tested on: MDR mouse T-cell lymphoma cells; design: method as in PMID 30396935; conditions: preliminary results; cited from earlier work
[14] = tested on: MRC-5 human embryonal lung fibroblast cell line; design: method as in earlier work; conditions: cited from earlier work
[15] = tested on: S. aureus MRSA 272123; experiment: Resistance modulation (MIC reduction) assay with CIP and TET; format: cell-based, Staphylococcus aureus
Protocol: (§7) The resistance modulation effects of compounds with ciprofloxacin (CIP) and tetracycline (TET) antibiotics were evaluated by the MIC reduction method on the Gram-negative E. coli AG100, AG100 A, and the Gram-positive S. aureus ATCC and MRSA strains.
(§8) The chemosensitizing activity of benzoxazole-type ligands and their metal complexes was determined based on the MIC values of the antibiotics in the presence of sub-inhibitory concentrations of the compounds (¼ MIC) in both Gram-negative and Gram-positive strains. The MICs were determined in strains by the two-fold broth microdilution method in 96-well plates, using serial dilutions of TET and CIP. The first four rows contained two-fold dilutions of antibiotics, and combinations of the TET and CIP and tested compounds were transferred into the last four rows. The 10^−4 dilution of an overnight bacterial culture in 50 μL of MHB was then measured to each well, except for the medium control wells. The plates were kept at 37 °C for 18 h. MIC values of antibiotics and their combination with tested compounds were detected by visual inspection.

[16] = tested on: E. coli AG100; experiment: as above; format: cell-based, Escherichia coli; conditions: compound at ¼ MIC
Protocol: as §7, §8

| SMILES | MIC [1] [µM] | MIC [2] [µM] | Relative fluorescence index (RFI) [3] | Relative fluorescence index (RFI) [4] | MIC [5] [µM] | Inhibition zone (quorum sensing) [6] [mm] | MIC [7] [µM] | MIC [8] [µM] | Relative fluorescence index (RFI) [9] | Cytotoxic effect (class in words) [10] | IC50 [10] [µM] | Relative fluorescence index (RFI) [11] | MIC [12] [µM] | IC50 [13] [µM] | IC50 [14] [µM] | Reduction of the MIC value of CIP ([15]; compound at a quarter of the MIC) [fold] | CIP MIC in combination with compounds ([15]; compound at ¼ MIC, value is the MIC of ciprofloxacin) [µM] | Reduction of the MIC of CIP [16] [fold] | CIP MIC in combination with compounds ([16]; value is the MIC of ciprofloxacin) [µM] |
| --- | --- | --- | --- | --- | --- | --- | --- | --- | --- | --- | --- | --- | --- | --- | --- | --- | --- | --- | --- |
| [O-]C(=Cc1nc2ccccc2o1)C(F)(F)F.[O-]C(=Cc1nc2ccccc2o1)C(F)(F)F.[Zn+2] [Compound 4] | 6.25 | 25 | −0.11 | −0.03 | 12.5 | 47 | >100 | >100 | −0.17 | strong (IC50: 0–30) | 17.5 | −0.10 | 25 | – | – | – | – | – | – |
| N.N.[Cl][Pt][Cl] [cisplatin] | – | – | – | – | – | – | – | – | – | – | – | – | – | 11.2 | 33.5 | – | – | – | – |
| CC(CN1c2ccccc2Sc2ccccc21)N(C)C (centres unmarked) [PMZ, promethazine, reference compound] | – | – | – | – | – | 16 | – | – | – | – | – | – | – | – | – | – | – | – | – |
| [Ag+].[Ag+].[O-]C(=Cc1nc2ccccc2o1)C(F)(F)F.[O-]C(=Cc1nc2ccccc2o1)C(F)(F)F [Compound 11] | 12.5 | 25 | −0.11 | 0.11 | 25 | 53 | >100 | >100 | 0.12 | – | 65.9 | 0.37 | 50 | – | – | – | – | – | – |
| O.O.[Ni+2].[O-]C(=Cc1nc2ccccc2o1)C(F)(F)F.[O-]C(=Cc1nc2ccccc2o1)C(F)(F)F [Compound 8] | 6.25 | 50 | −0.01 | −0.20 | 25 | – | >100 | >100 | −0.15 | strong (IC50: 0–30) | 12.2 | 0.11 | 25 | – | – | 2 | 6.25 | 2 | 0.008 |
